{"source": "patent EP2179735A1", "about": "(WORLD-TRADE IMPORT-EXPORT, WTIE, A.G., priority 2007, dated 2009)", "key": {"[1]": {"settings": "cited from earlier work"}, "[2]": {"settings": "in vivo; cited from earlier work"}, "[3]": {"settings": "cited from earlier work", "remark": "listed apart in the source"}, "[4]": {"system": "convulsions induced (MES)", "assay": "MES test (convulsions produced by electroshocks) in mice, drugs alone and in combination, isobolographic analysis", "type": "in vivo", "description": "MES test in rodents is broadly accepted as an experimental model of tonic-clonic convulsions or certain partial convulsions with or without secondary generalization. Brain concentrations were also assessed with anti-epilepsy compounds to monitor whether effects result in a pharmacodynamic and/or pharmacokinetic interaction.\nTests were carried out in Swiss, male, adult, albine mice with a weight between 22-26 gr.\nFirstly, separately administered medicament effects were studied."}, "[5]": {"settings": "LTG 3 mg/kg peritoneally, 60 minutes before MES test"}, "[6]": {"settings": "LTG 4 mg/kg peritoneally, 60 minutes before MES test"}, "[7]": {"settings": "LTG 5 mg/kg peritoneally, 60 minutes before MES test"}, "[8]": {"settings": "LTG 6 mg/kg peritoneally, 60 minutes before MES test"}, "[9]": {"settings": "LTG 8 mg/kg peritoneally, 60 minutes before MES test"}, "[10]": {"settings": "CZP 20 mg/kg peritoneally, 30 minutes before MES test"}, "[11]": {"settings": "CZP 25 mg/kg peritoneally, 30 minutes before MES test"}, "[12]": {"settings": "CZP 30 mg/kg peritoneally, 30 minutes before MES test"}, "[13]": {"settings": "CZP 35 mg/kg peritoneally, 30 minutes before MES test"}, "[14]": {"settings": "CZP 40 mg/kg peritoneally, 30 minutes before MES test"}}, "data": [{"smiles": "Nc1nnc(-c2cccc(Cl)c2Cl)c(N)n1", "note": "[LTG, Lamotrigine]", "values": [{"measurement": "removed without changes by feces", "setting": "[1]; feces", "value": 2, "unit": "%"}, {"measurement": "drug unalteredly removed", "setting": "[1]; in vivo", "value": 10, "unit": "%"}, {"measurement": "adverse event: asthenia", "setting": "[2]", "value": 10, "unit": "%"}, {"measurement": "adverse event: ataxia", "setting": "[2]", "value": 11, "unit": "%"}, {"measurement": "adverse event: diplopy", "setting": "[2]", "value": 14, "unit": "%"}, {"measurement": "adverse event: generalized allergic rash", "setting": "[2]", "value": "2-3%"}, {"measurement": "adverse event: headache", "setting": "[2]", "value": 12, "unit": "%"}, {"measurement": "adverse event: skin rash", "setting": "[2]", "value": 3, "unit": "%"}, {"measurement": "adverse event: somnolence", "setting": "[2]", "value": 13, "unit": "%"}, {"measurement": "adverse event: vertigo", "setting": "[2]", "value": 14, "unit": "%"}, {"measurement": "attachment to plasma proteins", "setting": "[3]", "value": "about 55%"}, {"measurement": "% (Percentage of protection against MES test)", "setting": "[4]; [5]", "value": 0, "unit": "%"}, {"measurement": "P/T (Number of protected animals against electroconvulsion / Total number of animals challenged with MES test)", "setting": "[4]; [5]", "value": "0/8"}, {"measurement": "% (Percentage of protection against MES test)", "setting": "[4]; [6]", "value": 25, "unit": "%"}, {"measurement": "P/T (Number of protected animals against electroconvulsion / Total number of animals challenged with MES test)", "setting": "[4]; [6]", "value": "2/8"}, {"measurement": "% (Percentage of protection against MES test)", "setting": "[4]; [7]", "value": 50, "unit": "%"}, {"measurement": "P/T (Number of protected animals against electroconvulsion / Total number of animals challenged with MES test)", "setting": "[4]; [7]", "value": "4/8"}, {"measurement": "% (Percentage of protection against MES test)", "setting": "[4]; [8]", "value": 75, "unit": "%"}, {"measurement": "P/T (Number of protected animals against electroconvulsion / Total number of animals challenged with MES test)", "setting": "[4]; [8]", "value": "6/8"}, {"measurement": "% (Percentage of protection against MES test)", "setting": "[4]; [9]", "value": 100, "unit": "%"}, {"measurement": "P/T (Number of protected animals against electroconvulsion / Total number of animals challenged with MES test)", "setting": "[4]; [9]", "value": "8/8"}]}, {"smiles": "O=C1CN=C(c2ccccc2Cl)c2cc([N+](=O)[O-])ccc2N1", "note": "[CZP, Clonazepam]", "values": [{"measurement": "bioavailability", "setting": "[1]; orally administered", "value": 90, "unit": "%"}, {"measurement": "recovered in urine in unaltered form", "setting": "[1]; urine, po", "value": "Less than 0.5%"}, {"measurement": "attachment to plasma proteins", "setting": "[3]", "value": 85, "unit": "%"}, {"measurement": "% (Percentage of protection against MES test)", "setting": "[4]; [10]", "value": 12.5, "unit": "%"}, {"measurement": "P/T (Number of protected animals against electroconvulsion / Total number of animals challenged with MES test)", "setting": "[4]; [10]", "value": "1/8"}, {"measurement": "% (Percentage of protection against MES test)", "setting": "[4]; [11]", "value": 25, "unit": "%"}, {"measurement": "P/T (Number of protected animals against electroconvulsion / Total number of animals challenged with MES test)", "setting": "[4]; [11]", "value": "2/8"}, {"measurement": "% (Percentage of protection against MES test)", "setting": "[4]; [12]", "value": 50, "unit": "%"}, {"measurement": "P/T (Number of protected animals against electroconvulsion / Total number of animals challenged with MES test)", "setting": "[4]; [12]", "value": "4/8"}, {"measurement": "% (Percentage of protection against MES test)", "setting": "[4]; [13]", "value": 75, "unit": "%"}, {"measurement": "P/T (Number of protected animals against electroconvulsion / Total number of animals challenged with MES test)", "setting": "[4]; [13]", "value": "6/8"}, {"measurement": "% (Percentage of protection against MES test)", "setting": "[4]; [14]", "value": 100, "unit": "%"}, {"measurement": "P/T (Number of protected animals against electroconvulsion / Total number of animals challenged with MES test)", "setting": "[4]; [14]", "value": "8/8"}]}]}
